Measured values taken from the supplement of paper PMC10307832.

Columns and labels:
Experiment in all cases: relative viability (nuclei count vs DMSO), 5 days (fraction); higher = more cells survive
[1] = compound: C1CC(C1)(C(=O)O)C(=O)O.[NH2-].[NH2-].[Pt+2] [Carboplatin] + Cc1cc(Nc2cc(N3CCN(C)CC3)nc(Sc3ccc(NC(=O)C4CC4)cc3)n2)n[nH]1 [Tozasertib] (partner 0.1 µM)
How it was run: (§1)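 Relative viability divides the nuclei count in treated wells by that in vehicle wells. Lung cancer cell lines were seeded in 1536-well plates, dosed by pin tool the next day, and fixed and stained after 5 days in one step with final 0.05% Triton X-100, 1% formaldehyde and 1 ug/ml Hoechst. Dosing was a single drug or a fixed anchor-drug dose plus five library-drug doses (not always all listed) in √10 steps, and values are medians of duplicate plates imaged at 4×.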

[2] = compound: NS(=O)(=O)OC[C@@H]1C[C@@H](n2ccc3c(N[C@H]4CCc5ccccc54)ncnc32)C[C@@H]1O [MLN4924] + CC(C)C[C@H](NC(=O)[C@H](Cc1ccccc1)NC(=O)c1cnccn1)B(O)O [Bortezomib] (partner 0.002 µM)
How it was run: as §1

[3] = compound: NS(=O)(=O)OC[C@@H]1C[C@@H](n2ccc3c(N[C@H]4CCc5ccccc54)ncnc32)C[C@@H]1O [MLN4924] + CS(=O)(=O)N1CCN(Cc2cc3nc(-c4cccc5[nH]ncc45)nc(N4CCOCC4)c3s2)CC1 [Pictilisib] (partner 1 µM)
How it was run: as §1

[4] = compound: NS(=O)(=O)OC[C@@H]1C[C@@H](n2ccc3c(N[C@H]4CCc5ccccc54)ncnc32)C[C@@H]1O [MLN4924] + O=C(c1cc(Cc2n[nH]c(=O)c3ccccc23)ccc1F)N1CCN(C(=O)C2CC2)CC1 [Olaparib] (partner 8 µM)
How it was run: as §1

Row | Cell Line | relative viability ([1]; first compound 0.08 µM) | relative viability ([1]; first compound 0.253 µM) | relative viability ([1]; first compound 0.8 µM) | relative viability ([1]; first compound 2.53 µM) | relative viability ([1]; first compound 8 µM) | relative viability ([2]; first compound 0.04 µM) | relative viability ([2]; first compound 0.1265 µM) | relative viability ([2]; first compound 0.4 µM) | relative viability ([2]; first compound 1.265 µM) | relative viability ([2]; first compound 4 µM) | relative viability ([3]; first compound 0.04 µM) | relative viability ([3]; first compound 0.1265 µM) | relative viability ([3]; first compound 0.4 µM) | relative viability ([3]; first compound 1.265 µM) | relative viability ([3]; first compound 4 µM) | relative viability ([4]; first compound 0.04 µM) | relative viability ([4]; first compound 0.1265 µM) | relative viability ([4]; first compound 0.4 µM) | relative viability ([4]; first compound 1.265 µM) | relative viability ([4]; first compound 4 µM)
1 | PC-14 | 0.553 | 0.582 | 0.443 | 0.314 | 0.202 | 0.857 | 0.823 | 0.369 | 0.172 | 0.101 | 0.849 | 0.634 | 0.307 | 0.0791 | 0.0776 | 0.188 | 0.129 | 0.0764 | 0.0624 | 0.0504
2 | HCC-15 | 0.48 | 0.553 | 0.34 | 0.342 | 0.303 | 0.685 | 0.53 | 0.234 | 0.102 | 0.0928 | 0.475 | 0.343 | 0.172 | 0.0896 | 0.107 | 0.318 | 0.164 | 0.159 | 0.106 | 0.0825
3 | NCI-H2347 | 0.54 | 0.547 | 0.637 | 0.633 | 0.56 | 0.79 | 0.933 | 0.532 | 0.392 | 0.395 | 0.841 | 0.895 | 0.387 | 0.324 | 0.369 | 0.666 | 0.605 | 0.512 | 0.4 | 0.376
4 | LOU-NH91 | 0.727 | 0.807 | 0.671 | 0.63 | 0.637 | 0.418 | 0.484 | 0.38 | 0.393 | 0.329 | 0.53 | 0.574 | 0.515 | 0.393 | 0.434 | 0.887 | 0.844 | 0.724 | 0.47 | 0.48
